Source: patent EP3057950B1, “PHENYL LINKED QUINOLINYL MODULATORS OF ROR-GAMMA-T” (Janssen Pharmaceutica NV, priority 2013, dated 2015)
Structures can show the parent of a compound that is named as a salt.

Assays:
[1] = system: IL-17 production by CD4 T cells; test: Human Th17 Assay (IL-17 production by CD4 T cells under Th17 differentiation conditions); assay type: cell-based; details: 3 days, IL-17 in supernatant
Method: The human Th17 assay tests the effect of RORγt modulatory compounds on IL-17 production by CD4 T cells under conditions which favor Th17 differentiation. Total CD4^+ T cells were isolated from the peripheral blood mononuclear cells (PBMC) of healthy donors using a CD4^+ T cell isolation kit II, following the manufacturer's instructions (Miltenyi Biotec). […] 50 µL of compound at titrated concentrations in DMSO were added into each well at final DMSO concentration at 0.2%. Cells were incubated for 1 hour, then 50 µL of Th17 cell differentiation medium was added to each well. The final concentrations of antibodies and cytokines (R&D Systems) in differentiation medium were: 3x10^6/mL anti-CD3/CD28 beads (prepared using human T cell activation/expansion kit, Miltenyi Biotec), 10 µg/mL anti-IL4, 10 µg/mL anti-IFNγ, 10 ng/mL […], 10 ng/mL IL23, 50 ng/mL IL6, 3 ng/mL TGFβ and 20 U/mL IL2. Cells were cultured at 37 °C and 5% CO2 for 3 days. Supernatants were collected and the accumulated IL-17 in culture was measured by using MULTI-SPOT® Cytokine Plate following manufacture's instruction (Meso Scale Discovery). The plate was read using Sector Imager 6000, and IL-17 concentration was extrapolated from the standard curve. The IC50s were determined by GraphPad.

[2] = biological target: T1, wild type human RORγt ligand binding domain (RORγt LBD) (Homo sapiens, UniProt P51449); test: RORγt ThermoFluor® Assay (thermal shift, binding affinity); details: pH 7.0, estimated from concentration response curves
T1 construct: His-tag (N); TurboTEV protease cleavage site (ENLYFQG) (N); made in house; host or cells: E. coli (pHIS1, modified pET expression vector)
T1 sequence (P51449 269-508 limits assumed): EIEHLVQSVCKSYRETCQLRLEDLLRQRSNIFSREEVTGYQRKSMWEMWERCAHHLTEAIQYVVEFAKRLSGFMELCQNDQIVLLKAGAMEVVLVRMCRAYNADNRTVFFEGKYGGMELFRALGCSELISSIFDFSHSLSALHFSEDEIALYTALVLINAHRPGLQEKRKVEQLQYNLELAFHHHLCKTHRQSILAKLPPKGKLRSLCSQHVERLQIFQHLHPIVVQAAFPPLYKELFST
How it was run: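 Thermal shift assay on 0.065 mg/mL RORγt LBD with 60 µM 1,8-ANS in 100 mM Hepes pH 7.0, 10 mM NaCl, 2.5 mM GSH, 0.002% Tween-20. Heated at 1 °C/min, fluorescence read at 500 nm.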

[3] = biological target: T2, wild type human RORγt LBD (Homo sapiens, UniProt P51449); test: RORγt Reporter Assay (GAL4-RORγt LBD luciferase in HEK293T cells); assay type: cell-based; details: HEK293T cells; for IC50: compounds for 24 hours, read-out: RORγt reporter Assay, IC50; for inhibition at 6 µM: HEK-293T, read-out: RORγt reporter Assay, % inhibition @ 6 µM, @ 6 µM
T2 construct: expressed in transfected cells; host or cells: HEK293T
T2 sequence (P51449 269-508 limits assumed): T1 sequence (P51449 269-508 limits assumed)
How it was run: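 HEK293T cells transiently co-transfected with GAL4-DBD–human RORγt LBD (or AF2 mutant) and GAL4-responsive firefly luciferase reporter; renilla luciferase normalised transfection and viability. Compounds applied 24 h in 5% lipid-reduced FCS; firefly/renilla ratio plotted against concentration.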

Structure (SMILES)	IC50 ([1]; Homo sapiens, CD4+ T, 72 h) [nM]	Kd [2] [nM]	RORγt reporter Assay, % inhibition @ 6 µM [3] [%]	IC50 [3] [nM]	inhibition at 6 µM [3] [%]	IC50 [1] [nM]
Cc1cc(C(O)(c2ccc(Cl)cc2)c2cncn2C)cc2c(C#N)c(-c3ccccc3)c(C#N)nc12 (single isomer, unassigned) [Example 23c, 6-((4-Chlorophenyl)(hydroxy)(1-methyl-1H-imidazol-5-yl)methyl)-8-methyl-3-phenylquinoline-2,4-dicarbonitrile]	400	150	100	230	–	–
COc1nc2ccc(C(O)(c3ccc(C(F)(F)F)nc3)c3cncn3C)cc2c(Cl)c1-c1ccc(C#N)cc1 (centres unmarked) [Example 16, 4-(4-Chloro-6-{hydroxy(1-methyl-1H-imidazol-5-yl)[6-(trifluoromethyl)pyridin-3-yl]methyl}-2-methoxyquinolin-3-yl)benzonitrile•TFA]	81	27	–	200	86	–
CC(=O)N1CCC(C(O)(c2ccc3nc(C(F)(F)F)c(-c4ccccc4)c(Cl)c3c2)c2cncn2C)CC1 (single isomer, unassigned) [Example 34c, 1-(4-((4-Chloro-3-phenyl-2-(trifluoromethyl)quinolin-6-yl)(hydroxy)(1-methyl-1H-imidazol-5-yl)methyl)piperidin-1-yl)ethanone]	260	100	96	270	–	–
COc1nc2ccc(C(O)(c3cncn3C)c3cnnn3C)cc2c(C#N)c1-c1cccc(C(F)(F)F)c1 (single isomer, unassigned) [Example 4b, 6-(Hydroxy(1-methyl-1H-1,2,3-triazol-5-yl)(1-methyl-1H-imidazol-5-yl)methyl)-2-methoxy-3-(3-(trifluoromethyl)phenyl)quinoline-4-carbonitrile]	61	4.4	–	9.5	98	–
COc1nc2ccc(C(O)(c3cncn3C)C3CCN(C(C)=O)CC3)cc2c(C#N)c1-c1cccc(C(F)(F)F)c1 (single isomer, unassigned) [Example 2c, 6-((1-Acetylpiperidin-4-yl)(hydroxy)(1-methyl-1H-imidazol-5-yl)methyl)-2-methoxy-3-(3-(trifluoromethyl)phenyl)quinoline-4-carbonitrile]	–	140	95	170	–	670
Cc1cc(C(O)(c2ccc(C(F)(F)F)nc2)c2cncn2C)cc2c(C#N)c(-c3ccccc3)c(C#N)nc12 (single isomer, unassigned) [Example 25c, 6-(Hydroxy(1-methyl-1H-imidazol-5-yl)(6-(trifluoromethyl)pyridin-3-yl)methyl)-8-methyl-3-phenylquinoline-2,4-dicarbonitrile]	160	61	95	160	–	–
COc1c(-c2ccccc2)c(C(F)(F)F)nc2ccc(C(O)(c3ccc(Cl)cc3)c3cncn3C)cc12 (single isomer, unassigned) [Example 33c, (4-Chlorophenyl)(4-methoxy-3-phenyl-2-(trifluoromethyl)quinolin-6-yl)(1-methyl-1H-imidazol-5-yl)methanol]	290	77	99	130	–	–
COc1nc2ccc(C(O)(c3cncn3C)C3CCN(C(C)=O)CC3)cc2c(Cl)c1-c1cccc(C(F)(F)F)c1 (single isomer, unassigned) [Example 1c, 1-(4-((4-Chloro-2-methoxy-3-(3-(trifluoromethyl)phenyl)quinolin-6-yl)(hydroxy)(1-methyl-1H-imidazol-5-yl)methyl)piperidin-1-yl)ethanone]	–	33	95	110	–	310
COc1nc2ccc(C(O)(c3cncn3C)c3cnnn3C)cc2c(C#N)c1-c1cccc(C(F)(F)F)c1 (single isomer, unassigned) [Example 4c, 6-(Hydroxy(1-methyl-1H-1,2,3-triazol-5-yl)(1-methyl-1H-imidazol-5-yl)methyl)-2-methoxy-3-(3-(trifluoromethyl)phenyl)quinoline-4-carbonitrile]	–	1.4	98	11	–	31
COc1nc2ccc(C(O)(c3cncn3C)c3cnnn3C)cc2c(Cl)c1-c1cccc(C(F)(F)F)c1 (single isomer, unassigned) [Example 3c, (4-Chloro-2-methoxy-3-(3-(trifluoromethyl)phenyl)quinolin-6-yl)(1-methyl-1H-1,2,3-triazol-5-yl)(1-methyl-1H-imidazol-5-yl)methanol]	–	2.3	98	6.6	–	43
COc1nc2ccc(C(O)(c3cncn3C)C3CCN(C(C)=O)CC3)cc2c(Cl)c1-c1cccc(C(F)(F)F)c1 (single isomer, unassigned) [Example 1b, 1-(4-((4-Chloro-2-methoxy-3-(3-(trifluoromethyl)phenyl)quinolin-6-yl)(hydroxy)(1-methyl-1H-imidazol-5-yl)methyl)piperidin-1-yl)ethanone]	400	130	–	160	89	–
COc1nc2c(C)cc(C(O)(c3ccc(C(F)(F)F)nc3)c3cncn3C)cc2c(C#N)c1-c1ccc(OC(F)(F)F)cc1 (single isomer, unassigned) [Example 19b, 6-(Hydroxy(1-methyl-1H-imidazol-5-yl)(6-(trifluoromethyl)pyridin-3-yl)methyl)-2-methoxy-8-methyl-3-(4-(trifluoromethoxy)phenyl)quinoline-4-carbonitrile]	400	360	94	300	–	–

Second part, the compound after the results:

IC50 ([1]; Homo sapiens, CD4+ T, 72 h) [nM]	Kd [2] [nM]	RORγt reporter Assay, % inhibition @ 6 µM [3] [%]	IC50 [3] [nM]	inhibition at 6 µM [3] [%]	IC50 [1] [nM]	Structure (SMILES)
~6000	20000	–	700	80	–	OC(c1ccccc1)(c1ccncc1)c1ccc2nc(Cl)c(-c3ccccc3Cl)c(Cl)c2c1 (centres unmarked) [Example 73, (2,4-Dichloro-3-(2-chlorophenyl)quinolin-6-yl)(phenyl)(pyridin-4-yl)methanol]
480	450	–	130	105	–	Cn1cncc1C(O)(c1ccc2nc(C(F)(F)F)c(-c3ccccc3)c(Cl)c2c1)c1ccccn1 (centres unmarked) [Example 61, (4-Chloro-3-phenyl-2-(trifluoromethyl)quinolin-6-yl)(1-methyl-1H-imidazol-5-yl)(pyridin-2-yl)methanol•TFA]
–	1.4	–	8.6	102	7	COc1nc2ccc(C(O)(c3cnnn3C)c3cnc(C)n3C)cc2c(Cl)c1-c1ccccc1 (single isomer, unassigned) [Example 41b, (4-Chloro-2-methoxy-3-phenylquinolin-6-yl)(1,2-dimethyl-1H-imidazol-5-yl)(1-methyl-1H-1,2,3-triazol-5-yl)methanol]
54	1.9	100	25	–	–	Cc1nc(C)c(C(O)(c2ccc3nc(C#N)c(-c4ccccc4)c(C#N)c3c2)c2cnnn2C)s1 (single isomer, unassigned) [Example 47c, 6-((2,4-Dimethylthiazol-5-yl)(hydroxy)(1-methyl-1H-1,2,3-triazol-5-yl)methyl)-3-phenylquinoline-2,4-dicarbonitrile]
–	6.5	102	270	–	210	COc1nc2ccc(C(O)(c3cnnn3C)c3cnc(C)n3C)cc2c(Cl)c1-c1ccccc1 (single isomer, unassigned) [Example 41c, (4-Chloro-2-methoxy-3-phenylquinolin-6-yl)(1,2-dimethyl-1H-imidazol-5-yl)(1-methyl-1H-1,2,3-triazol-5-yl)methanol]
